Ends that are not written are not given here. Peptide text beside a SMILES is read from it. * marks the point of attachment. X1 = Nc1ncnc2c1ncn2[C@@H]1O[C@H](COP(=O)(O)NC(=O)[C@H](CC(=O)O)N*)[C@@H](O)[C@H]1O; For = O=C*
Columns and labels:
YejABEF importer = conditions: 4 vs the peptide lacking the N-formyl moiety 3; cited from earlier work
wild type MccB = assay: Competition FP binding assay, wild type MccB, fMccA-FITC probe; parameters: species or system E. coli; conditions: even at concentrations greater than 5 mM
MccB = assay: PNP-coupled Michaelis–Menten kinetics of MccB; conditions: wild-type MccB

Molecule | substrate quality for YejABEF importer (YejABEF importer) | displacement of bound FITC-labeled N-formylated 2 (wild type MccB) | substrate inhibition of MccB (MccB)
CSCC[C@H](NC=O)C(=O)N[C@@H](CCCNC(=N)N)C(=O)N[C@H](C(=O)NCC(=O)N[C@@H](CC(N)=O)C(=O)N[C@@H](C)C(=O)N[C@@H](CC(=O)O)C(=O)NP(=O)(O)OC[C@H]1O[C@@H](n2cnc3c(N)ncnc32)[C@H](O)[C@@H]1O)[C@@H](C)O [compound 4] (For-MRTGNA-X1) | significantly better substrate |  | 
MRTGNAN [compound 1] |  | could not displace | but not with the desformyl 1 peptide
